{
  "source": "patent US4064169A",
  "about": "“Bis-(meta-amidinophenoxy)-compounds and pharmacologically acceptable acid addition salts thereof” (Eisai Co., Ltd., priority 1976, dated 1977)",
  "type_in_all_cases": "cell-based",
  "key": {"[1]": {"tested_on": "Candida albicans IFM 4080", "assay": "Antifungal test when a serum is added", "settings": "27° C, read-out: M.I.C. of serum added", "protocol": "(§1) Respective agar plates were prepared by dissolving compounds under test in aseptic water to make a two fold dilution series, taking each 1 milliliter of said diluted solutions and 9 ml of Sabouraud medium into a petri dish, and sufficiently admixing the same.\n(§2) On the other hand, an inoculum was prepared by cultivating an examined fungus (microorganism) on the Sabouraud slant medium and suspending two loopful of the incubated fungus in 10 ml of sterilized physiological saline water.\n(§3) One loopful of the inoculum was streaked on the above-mentioned agar plate. After the agar plate was incubated at a defined temperature for a predetermined period of time to determine the minimal inhibitory concentration (M.I.C.).\n(§4) Minimal inhibitory concentration (M.I.C.) was determined by preparing the agar plate medium in the same manner of the preceding pharmacological test 1, except for the addition of the horse serum. The concentration of the component in the medium was finally corrected, so that it may amount to the concentration of the component when the horse serum was not added.\n(§5) Incubation temperature: […]"}, "Cryptococcus neoformans": {"tested_on": "Cryptococcus neoformans", "assay": "Antifungal test when a serum is added", "settings": "27° C, read-out: M.I.C. of serum added", "protocol": "as §1, §2, §3, §4, §5"}, "Candida utilis AHU 3053": {"tested_on": "Candida utilis AHU 3053", "assay": "Antifungal test when a serum is added", "settings": "Williopsis jadinii, 27° C, read-out: M.I.C. of serum added", "protocol": "as §1, §2, §3, §4, §5"}, "[2]": {"tested_on": "Candida albicans Yu-1200 IFM 4020", "assay": "Antifungal test when a serum is added", "settings": "27° C, read-out: M.I.C. of serum added", "protocol": "as §1, §2, §3, §4, §5"}, "[3]": {"tested_on": "Candida albicans AHU 3656", "assay": "Antifungal test when a serum is added", "settings": "27° C, read-out: M.I.C. of serum added", "protocol": "as §1, §2, §3, §4, §5"}, "[4]": {"tested_on": "Candida tropicalis AHU 3071", "assay": "Antifungal test when a serum is added", "settings": "27° C, read-out: M.I.C. of serum added", "protocol": "as §1, §2, §3, §4, §5"}, "[5]": {"tested_on": "Candida guilliermondii AHU 3654", "assay": "Antifungal test when a serum is added", "settings": "Meyerozyma guilliermondii, 27° C, read-out: M.I.C. of serum added", "protocol": "as §1, §2, §3, §4, §5"}, "Candida Krusei AHU 3993": {"tested_on": "Candida Krusei AHU 3993", "assay": "Antifungal test when a serum is added", "settings": "Pichia kudriavzevii, 27° C, read-out: M.I.C. of serum added", "protocol": "as §1, §2, §3, §4, §5"}, "[6]": {"tested_on": "Candida albicans NAKAGAWA IFM 4017", "assay": "Antifungal test when a serum is added", "settings": "27° C, read-out: M.I.C. of serum added", "protocol": "as §1, §2, §3, §4, §5"}, "fungi of Table 4": {"tested_on": "fungi of Table 4", "assay": "Antifungal test when a serum is added (summary)", "settings": "10% and 30% by volume horse serum", "protocol": "as §4"}, "[7]": {"settings": "168 h, 10 % horse serum, 7 days"}, "[8]": {"settings": "168 h, 30 % horse serum, 7 days"}},
  "note": "Counter-ions that a name gives are not always drawn. Like-named read-outs stand apart in the source and are kept apart here.",
  "data": [
    {"smiles": "N=C(N)c1cccc(OCC2CCC(COc3cccc(C(=N)N)c3)CC2)c1", "note": "(centres unmarked) [Compound A, 1,4-Bis-(m,m'-amidinophenoxymethyl)-cyclohexane-dihydrochloride]", "values": [
      {"measurement": "MIC", "setting": "[1]; IFM4080, 72 h, 0 % horse serum, 3 days", "value": 3.13, "unit": "µg/mL"},
      {"measurement": "MIC", "setting": "[1]; IFM4080, 72 h, 10 % horse serum, 3 days", "value": 12.5, "unit": "µg/mL"},
      {"measurement": "MIC", "setting": "[1]; IFM4080, 72 h, 30 % horse serum, 3 days", "value": 12.5, "unit": "µg/mL"},
      {"measurement": "MIC", "setting": "[1]; IFM4080, 168 h, 0 % horse serum, 7 days", "value": 6.25, "unit": "µg/mL"},
      {"measurement": "MIC", "setting": "[1]; IFM4080, 168 h, 10 % horse serum, 7 days", "value": 12.5, "unit": "µg/mL"},
      {"measurement": "MIC", "setting": "[1]; IFM4080, 168 h, 30 % horse serum, 7 days", "value": 12.5, "unit": "µg/mL"},
      {"measurement": "MIC", "setting": "Cryptococcus neoformans; 72 h, 0 % horse serum, 3 days", "value": 3.13, "unit": "µg/mL"},
      {"measurement": "MIC", "setting": "Cryptococcus neoformans; 72 h, 10 % horse serum, 3 days", "value": 6.25, "unit": "µg/mL"},
      {"measurement": "MIC", "setting": "Cryptococcus neoformans; 72 h, 30 % horse serum, 3 days", "value": 12.5, "unit": "µg/mL"},
      {"measurement": "MIC", "setting": "Cryptococcus neoformans; 168 h, 0 % horse serum, 7 days", "value": 3.13, "unit": "µg/mL"},
      {"measurement": "MIC", "setting": "Cryptococcus neoformans; [7]", "value": 12.5, "unit": "µg/mL"},
      {"measurement": "MIC", "setting": "Cryptococcus neoformans; [8]", "value": 12.5, "unit": "µg/mL"},
      {"measurement": "MIC", "setting": "Candida utilis AHU 3053; AHU3053, 72 h, 0 % horse serum, 3 days", "value": 3.13, "unit": "µg/mL"},
      {"measurement": "MIC", "setting": "Candida utilis AHU 3053; AHU3053, 72 h, 10 % horse serum, 3 days", "value": 3.13, "unit": "µg/mL"},
      {"measurement": "MIC", "setting": "Candida utilis AHU 3053; AHU3053, 72 h, 30 % horse serum, 3 days", "value": "< 0.8", "unit": "µg/mL"},
      {"measurement": "MIC", "setting": "Candida utilis AHU 3053; AHU3053, 168 h, 0 % horse serum, 7 days", "value": 3.13, "unit": "µg/mL"},
      {"measurement": "MIC", "setting": "Candida utilis AHU 3053; AHU3053, 168 h, 10 % horse serum, 7 days", "value": 6.25, "unit": "µg/mL"},
      {"measurement": "MIC", "setting": "Candida utilis AHU 3053; AHU3053, 168 h, 30 % horse serum, 7 days", "value": "< 0.8", "unit": "µg/mL"},
      {"measurement": "MIC", "setting": "[2]; YU1200IFM4020, 72 h, 0 % horse serum, 3 days", "value": "< 1.56", "unit": "µg/mL"},
      {"measurement": "MIC", "setting": "[2]; YU1200IFM4020, 72 h, 10 % horse serum, 3 days", "value": 6.25, "unit": "µg/mL"},
      {"measurement": "MIC", "setting": "[2]; YU1200IFM4020, 72 h, 30 % horse serum, 3 days", "value": 25, "unit": "µg/mL"},
      {"measurement": "MIC", "setting": "[2]; YU1200IFM4020, 168 h, 0 % horse serum, 7 days", "value": 3.13, "unit": "µg/mL"},
      {"measurement": "MIC", "setting": "[2]; YU1200IFM4020, 168 h, 10 % horse serum, 7 days", "value": 6.25, "unit": "µg/mL"},
      {"measurement": "MIC", "setting": "[2]; YU1200IFM4020, 168 h, 30 % horse serum, 7 days", "value": 25, "unit": "µg/mL"},
      {"measurement": "MIC", "setting": "[3]; AHU3656, 72 h, 0 % horse serum, 3 days", "value": 3.13, "unit": "µg/mL"},
      {"measurement": "MIC", "setting": "[3]; AHU3656, 72 h, 10 % horse serum, 3 days", "value": 25, "unit": "µg/mL"},
      {"measurement": "MIC", "setting": "[3]; AHU3656, 72 h, 30 % horse serum, 3 days", "value": 25, "unit": "µg/mL"},
      {"measurement": "MIC", "setting": "[3]; AHU3656, 168 h, 0 % horse serum, 7 days", "value": 6.25, "unit": "µg/mL"},
      {"measurement": "MIC", "setting": "[3]; AHU3656, 168 h, 10 % horse serum, 7 days", "value": 25, "unit": "µg/mL"},
      {"measurement": "MIC", "setting": "[3]; AHU3656, 168 h, 30 % horse serum, 7 days", "value": 25, "unit": "µg/mL"},
      {"measurement": "MIC", "setting": "[4]; AHU3071, 72 h, 0 % horse serum, 3 days", "value": 3.13, "unit": "µg/mL"},
      {"measurement": "MIC", "setting": "[4]; AHU3071, 72 h, 10 % horse serum, 3 days", "value": 6.25, "unit": "µg/mL"},
      {"measurement": "MIC", "setting": "[4]; AHU3071, 72 h, 30 % horse serum, 3 days", "value": 12.5, "unit": "µg/mL"},
      {"measurement": "MIC", "setting": "[4]; AHU3071, 168 h, 0 % horse serum, 7 days", "value": 3.13, "unit": "µg/mL"},
      {"measurement": "MIC", "setting": "[4]; AHU3071, 168 h, 10 % horse serum, 7 days", "value": 6.25, "unit": "µg/mL"},
      {"measurement": "MIC", "setting": "[4]; AHU3071, 168 h, 30 % horse serum, 7 days", "value": 12.5, "unit": "µg/mL"},
      {"measurement": "MIC", "setting": "[5]; AHU3654, 72 h, 0 % horse serum, 3 days", "value": 25, "unit": "µg/mL"},
      {"measurement": "MIC", "setting": "[5]; AHU3654, 72 h, 10 % horse serum, 3 days", "value": 25, "unit": "µg/mL"},
      {"measurement": "MIC", "setting": "[5]; AHU3654, 72 h, 30 % horse serum, 3 days", "value": 50, "unit": "µg/mL"},
      {"measurement": "MIC", "setting": "[5]; AHU3654, 168 h, 0 % horse serum, 7 days", "value": 25, "unit": "µg/mL"},
      {"measurement": "MIC", "setting": "[5]; AHU3654, 168 h, 10 % horse serum, 7 days", "value": 25, "unit": "µg/mL"},
      {"measurement": "MIC", "setting": "[5]; AHU3654, 168 h, 30 % horse serum, 7 days", "value": 50, "unit": "µg/mL"},
      {"measurement": "MIC", "setting": "Candida Krusei AHU 3993; 72 h, 0 % horse serum, 3 days", "value": "> 100", "unit": "µg/mL"},
      {"measurement": "MIC", "setting": "Candida Krusei AHU 3993; 72 h, 10 % horse serum, 3 days", "value": 200, "unit": "µg/mL"},
      {"measurement": "MIC", "setting": "Candida Krusei AHU 3993; 72 h, 30 % horse serum, 3 days", "value": 100, "unit": "µg/mL"},
      {"measurement": "MIC", "setting": "Candida Krusei AHU 3993; 168 h, 0 % horse serum, 7 days", "value": "> 100", "unit": "µg/mL"},
      {"measurement": "MIC", "setting": "Candida Krusei AHU 3993; [7]", "value": "> 200", "unit": "µg/mL"},
      {"measurement": "MIC", "setting": "Candida Krusei AHU 3993; [8]", "value": 100, "unit": "µg/mL"},
      {"measurement": "MIC", "setting": "[6]; 72 h, 0 % horse serum, 3 days", "value": 3.13, "unit": "µg/mL"},
      {"measurement": "MIC", "setting": "[6]; 72 h, 10 % horse serum, 3 days", "value": 25, "unit": "µg/mL"},
      {"measurement": "MIC", "setting": "[6]; 72 h, 30 % horse serum, 3 days", "value": 6.25, "unit": "µg/mL"},
      {"measurement": "MIC", "setting": "[6]; 168 h, 0 % horse serum, 7 days", "value": 3.13, "unit": "µg/mL"},
      {"measurement": "MIC", "setting": "[6]; [7]", "value": 25, "unit": "µg/mL"},
      {"measurement": "MIC", "setting": "[6]; [8]", "value": 6.2, "unit": "µg/mL"},
      {"measurement": "antifungal activity with serum compared with no serum", "setting": "fungi of Table 4", "value": "nearly same as that when the horse serum was not added"},
      {"measurement": "difference of antifungal activity with vs without horse serum", "setting": "fungi of Table 4", "value": "1 - 2 dilution step(s)"}
    ]}
  ]
}
